{"source": "paper PMC4809498", "about": "“Artonin E Induces Apoptosis via Mitochondrial Dysregulation in SKOV-3 Ovarian Cancer Cells” (PLoS ONE, 2016)", "key": {"[1]": {"test_system": "Human periodontal ligament fibroblasts", "test": "MTT cell viability assay, periodontal fibroblasts", "assay_type": "cell-based", "conditions": "Human periodontal fibroblast, 24 h treatment", "description": "Metastatic ovarian adenocarcinoma (SKOV-3) and normal Chinese hamster ovary (CHO) cell lines were originally obtained from the American Type Culture Collection (ATCC; Manassas, VA). SKOV-3 cells were cultured in McCoy’s 5A medium and CHO cells were cultured in F12K medium. A human periodontal ligament fibroblast cell line was purchased from Lonza, USA and maintained in stroma cell basal medium. T1074 (normal immortalized human ovarian surface epithelial cell line) was originally purchased from Applied Biological Materials (abm®) Canada and cultured in Prigrow 1 medium.\nThe inhibitory effects of artonin E and two positive controls paclitaxel and carboplatin were examined by MTT assay. Cells at a density of 5×10^3cells/well were placed in a 96-well plate and left for 24 h to attach. The attached cells were exposed to artonin E, paclitaxel, and carboplatin at different concentrations and incubated for 24, 48, and 72 h. Subsequently, 20 μL of 5 mg/mL MTT solution was added after drug treatment and the resulting mixture was incubated for 4 h to form purple formazan. Afterward, 100 μL of dimethyl sulfoxide (DMSO) was transferred into each well to dissolve the purple formazan, and results were measured using a microplate reader (Tecan Infinite M 200 PRO, Männedorf, Switzerland) at an absorbance of 570 nm. […]"}, "SKOV-3 cells [2]": {"test_system": "SKOV-3 cells", "test": "Cell cycle analysis by flow cytometry", "assay_type": "cell-based, human", "conditions": "SKOV-3, 8 μg/mL, 72 h after treatment", "description": "SKOV-3 cells at a concentration of 5×10^5 cells were plated into a T75cm^2 flask and incubated overnight to allow attachment. The attached cells were treated with 8 μg/mL of artonin E at different time points. After treatment, the cells were trypsinized and centrifuged at 1,500 rpm for 10 min. The fresh pellets were washed twice with PBS, fixed with 500 μL of 70% cold ethanol, and incubated at −20°C overnight. The remaining ethanol was then removed and the cells were resuspended in PBS containing 20 μL of RNase A (10 μg/mL) and 2 μL of PI (2.5 μg/mL). The resulting mixture was incubated for 30 min at 37°C in the dark. Samples were immediately analyzed using FACS Canto 11 Becton-Dickinson flow cytometry. For each sample, 10,000 cells were measured. ModFit LT software (Verity Software House, Topsham, ME) was used to analyze the percentage of cells at different phases."}, "SKOV-3 cells [3]": {"test_system": "SKOV-3 cells", "test": "Intracellular ROS generation (DCFH-DA)", "assay_type": "cell-based, human", "conditions": "SKOV-3, 8 μg/mL", "description": "2′,7′-Dichlorofluorescin diacetate (DCFH-DA) was used to examine the production of intracellular reactive oxygen species in SKOV-3 cells treated with artonin E. The SKOV-3 cells were seeded in the 96-well black plate and incubated overnight to attach. The cells were then treated with 8 μg/mL of artonin E for 24, 48, and 72 h. Hank’s balanced salt solution without serum was used to wash the cells. Then, 100 μL of DCFH-DA solution was added to each designated well, and the plate was incubated at 37°C for 30 min. The results were analyzed using a fluorescence microplate reader (Tecan Infinite M 200 PRO, Männedorf, Switzerland) at 485 nm excitation and 520 nm emission."}, "SKOV-3 cells [4]": {"test_system": "SKOV-3 cells", "test": "DNA fragmentation (laddering) assay", "assay_type": "cell-based, human", "conditions": "SKOV-3, 8 μg/mL, 24, 48, 72 h, 1.5% agarose gel", "description": "SKOV-3 cells were treated with artonin E at different time points, and harvested by adding trypsin to promote detachment. The detached cells were spun down and washed two times with cold PBS. The DNA from cells in the suspension was extracted using the suicide Track^TM DNA ladder isolation kit (Calbiochem, EMD Bioscience, Germany). The cells were then lysed by mixing 55 μL of TE (Tris and EDTA) lysis buffer and 20 μL of enzyme A (RNase A). The resulting mixture was incubated at 37°C for 1 h. Subsequently, 25 μL of enzyme B (proteinase K) was added and the lysate was kept in a water bath at 50°C overnight. Following incubation, 2 μL of Pellet Paint, 60 μL of 3M sodium acetate, and 662 μL of 2-propanol were added to the lysate, and the solution was briefly mixed by inversion and incubated at room temperature for 2 min. The DNA was then precipitated by centrifugation of the samples at 16,000×g for 5 min. The supernatant was removed and the fresh pellets were rinsed two times with 70% and 100% ice-cold ethanol. The pellets were air dried at room temperature for a few minutes to discard the ethanol and resuspended with 50 μL of DNA resuspension buffer. The prepared DNA ladder samples were loaded onto a 1.5% gel electrophoresis set up and run at 50 constant volts for 3 h. […]"}, "caspase-9": {"test_system": "caspase-9", "test": "Western blot, caspase-9", "assay_type": "cell-based, human", "conditions": "SKOV-3, 8 μg/mL, as early as 24 h", "description": "(§1) SKOV-3 cells were plated in a 75cm^2 culture flask and exposed to artonin E for 24, 48, and 72 h. Lysis buffer (50 mM Tris–HCl, pH 8.0; 120 mM NaCl, 0.5% NP-40; and 1 mM PMSF) was used to extract the total protein. Protein concentration was determined using a BCA protein assay reagent kit (Bio-Rad, USA). Equal amounts of protein (40 μg) extract were subjected to SDS-PAGE and electroblotted onto a polyvinylidenedifluoride membrane (Bio-Rad). Blots were then blocked with 5% non-fat milk in TBS-Tween buffer 7 (0.12 M Tris-base, 1.5 M NaCl, and 0.1% Tween 20) for 1 h at room temperature. After incubating with the appropriate primary antibody overnight at 4°C, the blots were washed and then incubated with horseradish peroxidase conjugated secondary antibody for 1 h at room temperature. The protein bands were detected using pico or femto chemiluminescence (ECL system) and visualized using a UV gel documentation system. The subsequent primary antibodies, which include those for β-actin (1:10,000), Bax (1:10,000), Bcl-2 (1:10,000), HSP-70 (1:10,000), survivin (1:10,000),caspase -3 (1:10,000), caspase -8 (1:10,000), caspase -9 (1;10,000) and cytochrome c (1:200) were purchased from Abcam, Cambridge, United Kingdom."}, "Bcl-2": {"test_system": "Bcl-2", "test": "Western blot, Bcl-2", "assay_type": "cell-based, human", "conditions": "SKOV-3, 8 μg/mL", "description": "as §1"}, "survivin": {"test_system": "survivin", "test": "Western blot, survivin", "assay_type": "cell-based, human", "conditions": "SKOV-3, 8 μg/mL, 72 h after treatment", "description": "as §1"}}}
{"smiles": "CC(C)=CCc1c(-c2cc(O)c(O)cc2O)oc2c3c(cc(O)c2c1=O)OC(C)(C)C=C3", "note": "[Artonin E, artonin E]", "values": [{"measurement": "IC50", "setting": "[1]", "result": "67 ± 1", "unit": "µg/mL"}, {"measurement": "accumulation of cells arrested at the S phase", "setting": "SKOV-3 cells [2]", "result": "significantly (p<0.05) increased"}, {"measurement": "increase in the formation of ROS compared with untreated cells", "setting": "SKOV-3 cells [3]; 24 and 48 h after treatment", "result": "twofold"}, {"measurement": "ROS induction", "setting": "SKOV-3 cells [3]; 72 h after treatment", "result": "slightly decreased"}, {"measurement": "DNA fragmentation (ladder pattern)", "setting": "SKOV-3 cells [4]", "result": "distinctly observed"}, {"measurement": "protein expression level of caspase-9", "setting": "caspase-9", "result": "significantly (p<0.05) up-regulated"}, {"measurement": "Bcl-2 level", "setting": "Bcl-2; 24 h post treatment", "result": "significantly lower"}, {"measurement": "Bcl-2 level", "setting": "Bcl-2; after 48 h and 72 h", "result": "almost diminished"}, {"measurement": "level of survivin expression", "setting": "survivin", "result": "reduced significantly"}]}
